Laboratory results taken from patent US5523403A, “Tropone-substituted phenyloxazolidinone antibacterial agents” (The Upjohn Company, priority 1995, dated 1996).
Values after ≈ are worked out from the molar mass of the structure shown.

Key:
[1] = test system: Staphylococcus aureus UC ® 9213; experiment: in vitro antibacterial activity, Minimum Inhibitory Concentration, Staphylococcus aureus; details: for MIC: Staphylococcus aureus, UC9213, read-out: Minimum Inhibitory Concentration; for Minimum Inhibitory Concentration: in vitro, Staphylococcus aureus UC ® 9213
[2] = test system: Streptococcus pyogenes UC ® 152; experiment: in vitro antibacterial activity, Minimum Inhibitory Concentration, Streptococcus pyogenes; details: for MIC: Streptococcus pyogenes, UC152, read-out: Minimum Inhibitory Concentration; for Minimum Inhibitory Concentration: in vitro, Streptococcus pyogenes UC ® 152

Row | Compound | MIC [1] | MIC [2] | Minimum Inhibitory Concentration [1] | Minimum Inhibitory Concentration [2]
1 | COCCOc1ccc(-c2ccc(N3CC(CNC(C)=O)OC3=O)cc2)ccc1=O (racemic) [Compound 35, (±)-N-[[3-[4-[4-(2-methoxyethoxy)-5-oxo-1,3,6cycloheptatrien1-yl]phenyl)-2-oxo-5-oxazolidinyl]methyl]-acetamide] | 4 µg/mL (≈ 9.7 µM) | 1 µg/mL (≈ 2.42 µM) | – | –
2 | COc1ccc(-c2ccc(N3C[C@H](CNC(C)=O)OC3=O)cc2F)ccc1=O [Compound 19] | 1 µg/mL (≈ 2.59 µM) | 0.25 µg/mL (≈ 0.647 µM) | – | –
3 | CC(=O)NC[C@H]1CN(c2ccc(-c3ccc(N4CCOCC4)c(=O)cc3)cc2)C(=O)O1 [Compound 25, (S)-N-[[3-[4[4-(4-morpholino)-5-oxo-1,3,6-cycloheptatrien-1-yl]phenyl]-2-oxo-5-oxazolidinyl]methyl]-acetamide] | 2 µg/mL (≈ 4.72 µM) | 0.5 µg/mL (≈ 1.18 µM) | – | –
4 | C#CCNc1ccc(-c2ccc(N3C[C@H](CNC(C)=O)OC3=O)cc2F)ccc1=O [Compound 34] | – | – | 1 µg/mL | 0.25 µg/mL
5 | CC(=O)NC[C@H]1CN(c2ccc(-c3ccc(N4CCOCC4)c(=O)cc3)c(F)c2)C(=O)O1 [Compound 36, (S)-N-[[3-[3-fluoro4[(4-morpholino)-5-oxo-1,3,6cycloheptatrien-1-yl]phenyl]-2-oxo-5oxazolidinyl]methyl]-acetamide] | 2 µg/mL (≈ 4.53 µM) | 0.5 µg/mL (≈ 1.13 µM) | – | –
6 | (±)-N-[[3-[4-[4-(3-amino-1-yl]phenyl]-2-oxo-5-oxazolidinyl]methyl]-acetamide [Compound 23] | – | – | 16 µg/mL | 0.25 µg/mL
